Structures can show the parent of a compound that is named as a salt.
Assays:
PDE10A (human) = target: T1, PDE10A (human) (Homo sapiens, UniProt Q9Y233); assay: Measurement of PDE activity (HTRF cAMP kit), human PDE10A; format: biochemical; conditions: PDE enzymatic reaction, substrate 20 nM for PDE10, 60 minutes at 29 C
T1 construct: purchased BPS Bioscience
Summary of the method: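 HTRF detection of cAMP left after hydrolysis, expressed as percent of uninhibited control to derive IC50. Reaction: serially diluted inhibitor mixed with recombinant enzyme, started with 20 nM cAMP, 60 min at 29 °C in Tris-HCl pH 7.5 buffer containing MgCl2 and BSA.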

[1] = Determination of the microsomal half-life, rat liver microsomes; conditions: rat, liver microsomes, pH 7.4
[2] = Determination of the microsomal half-life, human liver microsomes; conditions: human, liver microsomes, pH 7.4
Method: The test substances were incubated in a concentration of 0.5 μM as follows:
0.5 μM test substance are preincubated together with liver microsomes from different species (from rat, human or other species) (0.25 mg of microsomal protein/10 in 0.05 M potassium phosphate buffer of pH 7.4 in microtiter plates at 37° C. for 5 min. The reaction is started by adding NADPH (1 mg/mL). After 0, 5, 10, 15, 20 and 30 min., 50 μl aliquots are removed, and the reaction is immediately stopped and cooled with the same volume of acetonitrile. The samples are frozen until analyzed. The remaining concentration of undegraded test substance is determined by MSMS. The half-life (T½) is determined from the gradient of the signal of test substance/unit time plot, it being possible to calculate the half-life of the test substance, assuming first order kinetics, from the decrease in the concentration of the compound with time. The microsomal clearance (mCl) is calculated from mCl=ln 2/T½/(content of microsomal protein in mg/ml)×1000 [ml/min/mg]

T1 sequence (Q9Y233 whole entry): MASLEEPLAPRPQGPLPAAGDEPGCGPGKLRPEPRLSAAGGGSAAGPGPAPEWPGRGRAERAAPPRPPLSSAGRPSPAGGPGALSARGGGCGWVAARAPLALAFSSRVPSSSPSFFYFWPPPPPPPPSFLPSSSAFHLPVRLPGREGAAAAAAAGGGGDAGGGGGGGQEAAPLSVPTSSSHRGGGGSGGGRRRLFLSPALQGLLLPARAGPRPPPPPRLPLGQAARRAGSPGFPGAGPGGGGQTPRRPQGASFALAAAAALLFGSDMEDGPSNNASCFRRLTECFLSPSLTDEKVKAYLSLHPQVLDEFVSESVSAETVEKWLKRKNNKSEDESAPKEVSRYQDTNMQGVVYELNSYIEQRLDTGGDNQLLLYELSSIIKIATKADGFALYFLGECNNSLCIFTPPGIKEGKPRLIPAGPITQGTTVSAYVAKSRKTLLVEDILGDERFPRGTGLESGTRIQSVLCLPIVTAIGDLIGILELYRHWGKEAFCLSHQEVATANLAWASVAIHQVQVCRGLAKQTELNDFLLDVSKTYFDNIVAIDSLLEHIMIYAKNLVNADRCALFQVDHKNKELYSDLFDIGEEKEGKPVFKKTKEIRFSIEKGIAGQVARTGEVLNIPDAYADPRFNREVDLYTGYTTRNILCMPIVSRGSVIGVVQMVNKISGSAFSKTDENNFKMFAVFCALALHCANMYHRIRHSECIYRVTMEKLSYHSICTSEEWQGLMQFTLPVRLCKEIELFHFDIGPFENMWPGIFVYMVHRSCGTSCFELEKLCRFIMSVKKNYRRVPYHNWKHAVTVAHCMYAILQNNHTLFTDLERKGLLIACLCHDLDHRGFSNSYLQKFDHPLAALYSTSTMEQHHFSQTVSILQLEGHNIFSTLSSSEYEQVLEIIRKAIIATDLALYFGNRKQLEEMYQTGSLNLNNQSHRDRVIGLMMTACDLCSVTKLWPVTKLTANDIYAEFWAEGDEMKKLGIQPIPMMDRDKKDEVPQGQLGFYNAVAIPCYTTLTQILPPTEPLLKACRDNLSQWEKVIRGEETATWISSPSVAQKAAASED

| SMILES | IC50 (PDE10A (human)) | microsomal CLint at 0.5 μM [1] | microsomal CLint at 0.5 μM [2] |
| --- | --- | --- | --- |
| O=C1c2c(cccc2N2CCS(=O)(=O)CC2)CN1CCc1nc2ccccc2[nH]1 [Example 175, 2-[2-(1H-Benzoimidazol-2-yl)-ethyl]-7-(1,1-dioxo-thiomorpholin-4-yl)-2,3-dihydro-isoindol-1-one] | 100 to 200 nM | < 100 µL/min/mg | < 100 µL/min/mg |
| O=C1c2c(cccc2NC2CNC2)CN1CCc1ccc2ccccc2n1 [Example 145, 7-(Azetidin-3-ylamino)-2-(2-quinolin-2-yl-ethyl)-2,3-dihydro-isoindol-1-one] | 200 to 500 nM | < 100 µL/min/mg | < 100 µL/min/mg |
| Cc1occc1-c1ccnc2c1C(=O)N(CCc1cn3ccccc3n1)C2 [compound 524, 6-(2-Imidazo[1,2-a]pyridin-2-ylethyl)-4-(2-methyl-3-furyl)-7H-pyrrolo[3,4-b]pyridin-5-one] | 100 to 200 nM | > 220 µL/min/mg | 100 to 220 µL/min/mg |
| Cn1nccc1-c1ccnc2c1C(=O)N(CCc1nc3ccccc3n1C)C2 [Example 214, 6-[2-(1-Methyl-1H-benzoimidazol-2-yl)-ethyl]-4-(2-methyl-2H-pyrazol-3-yl)-6,7-dihydro-pyrrolo[3,4-b]pyridin-5-one] | 100 to 200 nM | < 100 µL/min/mg | < 100 µL/min/mg |
| O=C1c2c(-c3ccncc3)ccnc2CN1CCc1nc2ccccc2o1 [compound 418, 6-[2-(1,3-Benzoxazol-2-yl)ethyl]-4-(4-pyridyl)-7H-pyrrolo[3,4-b]pyridin-5-one] | 200 to 500 nM | < 100 µL/min/mg | < 100 µL/min/mg |
| O=C1c2nccc(-c3cncnc3)c2CN1CCc1ccc2ccccc2n1 [compound 467, 4-Pyrimidin-5-yl-6-[2-(2-quinolyl)ethyl]-5H-pyrrolo[3,4-b]pyridin-7-one] | 100 to 200 nM | < 100 µL/min/mg | < 100 µL/min/mg |

The remaining lines, values ahead:

| IC50 (PDE10A (human)) | microsomal CLint at 0.5 μM [1] | microsomal CLint at 0.5 μM [2] | SMILES |
| --- | --- | --- | --- |
| < 100 nM | 100 to 220 µL/min/mg | 100 to 220 µL/min/mg | O=C1c2c(N3CCC(C(F)F)C3)ccnc2CN1CCc1nc2ccccc2s1 (stereo not drawn) [compound 385, 6-[2-(1,3-Benzothiazol-2-yl)ethyl]-4-[3-(difluoromethyl)pyrrolidin-1-yl]-7H-pyrrolo[3,4-b]pyridin-5-one] |
| < 100 nM | 100 to 220 µL/min/mg | 100 to 220 µL/min/mg | O=C1c2c(-c3ccncc3)ccnc2CN1CCc1nc2ccc(F)cc2s1 [compound 402, 6-[2-(6-Fluoro-1,3-benzothiazol-2-yl)ethyl]-4-(4-pyridyl)-7H-pyrrolo[3,4-b]pyridin-5-one] |
| < 100 nM | > 220 µL/min/mg | 100 to 220 µL/min/mg | COc1ccc(-c2ccnn2C)c2c1CN(CCc1ccc3ccccc3n1)C2=O [Example 210, 4-Methoxy-7-(2-methyl-2H-pyrazol-3-yl)-2-(2-quinolin-2-yl-ethyl)-2,3-dihydro-isoindol-1-one] |
| < 100 nM | < 100 µL/min/mg | < 100 µL/min/mg | O=C1c2cccc(-c3cc[nH]n3)c2CN1CCc1cn2ccccc2n1 [Example 314, 2-(2-Imidazo[1,2-a]pyridin-2-yl-ethyl)-4-(1H-pyrazol-3-yl)-2,3-dihydro-isoindol-1-one trifluoroacetate] |
| < 100 nM | < 100 µL/min/mg | < 100 µL/min/mg | COc1ccc(N2CCOCC2)c2c1CN(CCc1cn3ccccc3n1)C2=O [Example 264, 2-(2-Imidazo[1,2-a]pyridin-2-yl-ethyl)-4-methoxy-7-morpholin-4-yl-2,3-dihydro-isoindol-1-one trifluoroacetate] |
| < 100 nM | < 100 µL/min/mg | < 100 µL/min/mg | O=C1c2c(-c3cncnc3)ccnc2CN1CCc1ccc2ccccc2n1 [Example 166, 4-Pyrimidin-5-yl-6-(2-quinolin-2-yl-ethyl)-6,7-dihydro-pyrrolo[3,4-b]pyridin-5-one] |
